Assay results taken from patent US11634486B2, “Anti-SEZ6L2 antibodies and antibody drug conjugates” (Bluefin BioMedicine, Inc., priority 2016, dated 2023).

Tested on: small cell lung cancer cell line NCI-H209
Test: ADC combined with PARP inhibitor, cell viability
Assay type: cell-based, human
Conditions: olaparib 10 nM to 10 uM, six days
Method: Briefly, the small cell lung cancer cell line NCI-H209, which expresses ˜10,000 copies of SEZ6L2 on the cell surface, was seeded onto 96 well plate at 5000 cells/well Immediately after seeding, 10 pM of 3E2-PBD or isotype control hIgG-PBD (bearing a drug antibody ratio (DAR) of 1.7 and 2.5 respectively) were added to the wells in complete culture medium. A PARP inhibitor (olaparib) was then added to these wells such that the final concentration ranged from 10 nM to 10 uM. The PARP inhibitor was also tested on cells without an ADC. Each treatment was replicated in 2 wells and after six days, the PARP inhibitor plus modulator-mediated PBD cytotoxicity was assessed by quantifying the remaining number of live cells using Cell Titer Glo™. Cell viability was graphed by Prism™ using ratio of cell viability of test conditions to that of control wells treated with growth medium only.

O=C(c1cc(Cc2n[nH]c(=O)c3ccccc23)ccc1F)N1CCN(C(=O)C2CC2)CC1 [olaparib, reference compound]
percent viable cells, PARP inhibitor alone: responded in a dose dependent manner
